# Assay results from patent US9492464B2, “Composition for preventing or treating side effect of steroid in subject comprising acetylsalicylic acid and use thereof” (Samsung Electronics Co., Ltd., priority 2014, dated 2016).
# Tests used:
# Assay type in all cases: cell-based, mouse
# glucocorticoid receptor = assay: Immunoblotting of phosphorylated glucocorticoid receptor (pGR) in differentiated C2C12 cells; settings: 40, 400 or 4000 μM Aspirin pre-treatment 24 hours, then 2 μM dexamethasone 24 hours; as amount of Aspirin increases, FIG. 1
# Description: First, C2C12 cell lines (mouse gastrocnemius muscle, ATCC® CRL-1772™) were seeded in a 60 mm dish in 10% FBS/DMEM and incubated at 37° C. in a 5% CO2 incubator. When the cells formed 70% confluent, the culture medium was replaced with 2% FBS/DMEM and the cells were cultured for 4 days to completely induce differentiation into muscle cells. C2C12 cell lines are mouse myoblast cell lines obtained by continuous culture of myoblast cells cultured from gastrocnemius muscle of C3H mice.
# When C2C12 cells were completely differentiated into muscle cells, the culture medium was removed therefrom, and 4 ml of a fresh culture medium including 40 μM, 400 μM, or 4000 μM of Aspirin (Sigma Aldrich) was added thereto, and then the cells were cultured for 24 hours. 2 μM of dexamethasone (Sigma Aldrich) was added to the cultured cells and the cells were further cultured for 24 hours. A negative control group was not treated with acetylsalicylic acid and dexamethasone.
# The culture medium was removed therefrom, and the cells were collected. Then, 500 μl of RIPA (20 mM Tris-HCl (pH 7.5), 150 mM NaCl, 1 mM Na2EDTA, 1 mM EGTA, 1% NP-40, 1% (w/v) sodium deoxycholate, 2.5 mM sodium pyrophosphate, 1 mM beta-glycerophosphate, 1 mM Na3VO4, and 1 μg/ml leupeptin) lysis buffer was added thereto. The cells were lysed to obtain lysates. […]
# Atrogin-1 = assay: Real time PCR of Atrogin-1 mRNA in differentiated C2C12 cells; settings: 400 μM Aspirin 24 hours, then 2 μM dexamethasone 24 hours, normalized to GAPDH, FIG. 3A
# Description: (§1) As described above with reference to Example 1(2), C2C12 cells were completely differentiated into muscle cells, and 4 ml of a fresh culture medium including 400 μM of Aspirin (Sigma Aldrich) was added thereto, and then the cells were cultured for 24 hours. 2 μM of dexamethasone (Sigma Aldrich) was added to the cultured cells, and the cells were cultured for 24 hours. The culture medium was removed therefrom, and the cells were collected. A negative control group was not treated with acetylsalicylic acid and dexamethasone.
# (§2) A Trizol reagent (Invitrogen) was added to the collected cells, and total RNA was separated therefrom according to manufacturer's protocols. Complementary DNA (cDNA) was synthesized from the separated total RNA by using a reverse transcriptase. Amounts of mRNA of Atrogin-1 and MuRF-1 were quantified using a real time PCR device (MyiQPCR instrument, BioRad) that is a device measuring SYBR Green. The results were normalized with respect to an amount of GAPDH mRNA. […]
# (§3) Values obtained via amplification were normalized by GAPDH gene, and relative expression levels of mRNA of Atrogin-1 and MURF-1 were quantified. The quantified relative expression levels (arbitrary unit (AU)) of mRNA of Atrogin-1 and MURF-1 are illustrated in FIGS. 3A and 3B, respectively, […]
# MuRF-1 = assay: Real time PCR of MuRF-1 mRNA in differentiated C2C12 cells; settings: 400 μM Aspirin 24 hours, then 2 μM dexamethasone 24 hours, normalized to GAPDH, FIG. 3B
# Description: as §1, §2, §3
compound,measurement,setting,value
"CC(=O)Oc1ccccc1C(=O)O [Aspirin, 2-(acetyloxy)benzoic acid]",amount of glucocorticoid receptor GR phosphorylated by dexamethasone,glucocorticoid receptor,decreases
same,expression of mRNA of Atrogin-1,Atrogin-1,did not increase
same,expression of mRNA of MuRF1,MuRF-1,did not increase
